Assay results reported in US12636371B2, “Chemically coupled transporter for low-hydrophobicity bioactive drugs into the central nervous system” (Skybio LLC, priority 2021, dated 2026).

Assays:
SH-SY5Y cells = assay: Lysosome localization and number, LysoTracker Deep Red confocal microscopy; type: cell-based; details: 200 μM, 24 hs
Excerpt: Lysosomes are the final destination of the autophagic pathway. LysoTracker™ fluorescent probes, dyes that preferentially accumulate in vesicles with acidic pH, are widely used for tracing lysosomes in living and fixed cells in order to study organelle localization, their resident proteins, assess organelle functionality, quantify lysosome numbers and abnormalities in vesicular pH (Eskelinen E L, Schmidt C K, Neu S, et al. Disturbed cholesterol traffic but normal proteolytic function in LAMP-1/LAMP-2 double-deficient fibroblasts. Mol Biol Cell 2004; 15(7): 3132-45), and to examine the efficiency of autophagosome/lysosome fusion in live cells (González-Polo R A, Boya P, Pauleau A L, et al. The apoptosis/autophagy paradox: autophagic vacuolization before apoptotic death. J Cell Sci 2005; 118 (Pt 14): 3091-102.).
The effect of Pegasus on lysosomal activity in SH-SY5Y cells was estimated by visualizing the localization and number of lysosomes, marked by LysoTracker™ Deep Red (ThermoFisher #L12492), after treatment with 200 μM of Pegasus for 24 hs. After incubation, cells were fixed in PFA 4% prepared for confocal microscopy. Images were acquired in a ZEISS LSM800 confocal microscope.

[1] = test system: HEK293/Cytochrome C-tGFP cell line; assay: Apoptosis assay, Cytochrome C-tGFP localization by confocal microscopy; type: cell-based; details: 200 μM, 24 h
Excerpt: Identification of genes linked to familiar forms of PD have uncovered many molecular pathways involved in neurodegeneration. One of such genes is PTEN-induced kinase 1 (PINK1), a mitochondrial serine/threonine-protein kinase that protects cells from stress-induced mitochondrial dysfunction. […] In fact, PINK1 is the second most frequent causative gene in early-onset PD, where mutations in this gene cause an autosomal recessive form of the disease. Frequent missense or truncating mutations of PINK1 are implicated in the pathogenesis of PARK6 (familial type 6 of PD). […] Therefore, the release of Cytochrome C from damaged mitochondria is considered a central event in apoptotic signaling. To characterize the ability of Pegasus (D9) to induce mitochondrial damage and apoptosis, as assayed by the release of Cytochrome C from mitochondria, a transgenic Cytochrome C-tGFP HEK293 cell line was used (INNOPROT #P30801) (Goldstein J C, Muñoz-Pinedo C, Ricci J E, et al. Cytochrome C is released in a single step during apoptosis. Cell Death Differ 2005; 12(5): 453-62).
The effect of Pegasus on the localization and distribution of mitochondrial Cytochrome C-tGFP was visualized by confocal microscopy after incubation with 200 μM of D9 for 24 hs in the HEK293/Cytochrome C-tGFP cell line (INNOPROT #P30801). Images were acquired in a ZEISS LSM800 Confocal Microscope.

Bv2 cells = assay: MTT cytotoxicity assay in microglial Bv2 cell line; type: cell-based, murine; details: 10 and 20 μM, 24 h
Experimental: The ability of D9 to induce cytotoxicity was also studied using the MTT assay on Bv2 cells, a microglial cell line derived from the C57/BL6 murine model. For this, Bv2 cells were incubated in the presence and in the absence of different Pegasus concentrations at 37° C. Bv2 cells retain the morphology and functional characteristics of microglia and are therefore a widespread microglial model. These cells are immortalized by v-raf/v-myc carrying J2 retrovirus, and express nuclear v-myc and the cytoplasmic v-raf oncogene products as well as the env gp70 antigen at the surface level.
Bv2 cells were seeded in Poly-L-Lysine-treated 96-well plates at 15,000 cells/well and in 100 μl of DMEM supplemented with 10% Fetal Bovine Serum (FBS) and 1% Antibiotics/Antimycotics (PSA) and incubated for 24 h at 37° C. and 5% CO2. Afterwards, cells were treated with a 25 μl aliquot of a 50 µM and 100 μM Pegasus solution (final concentration in well 10 μM and 20 μM) and incubated for 24 h. To determine cell viability, the colorimetric MTT metabolic activity assay was used as previously described by Mosmann. All experiments were performed in sextuplicate, and the relative cell viability (%) was expressed as a percentage relative to the untreated control condition.

[2] = biological target: T1, recombinant human AS (α-synuclein) (Homo sapiens, UniProt P37840); assay: Thioflavin T fluorescence assay of AS amyloid aggregation; type: biochemical; details: 70 μM AS, 10 or 50 μM compound, 37° C., 600 rpm, 20 mM HEPES pH 7.4
T1 construct: made in house
Experimental: In order to evaluate the effect of Pegasus (D9) on AS amyloid fibril formation, aggregation reactions were performed according to LeVine (LeVine H, 3rd. Thioflavine T interaction with synthetic Alzheimer's disease beta-amyloid peptides: detection of amyloid aggregation in solution. Protein Sci 1993; 2(3): 404-10; LeVine H, 3rd. Quantification of beta-sheet amyloid fibril structures with thioflavin T. Methods Enzymol 1999; 309: 274-84.). In brief, the formation of cross-ß structures were followed by adding Thioflavin T (ThT), a fluorescent cross-β reporter probe, to aliquots extracted from the incubation mixture at different times.
Expression and purification of recombinant human AS were performed as previously described (Hoyer W, Antony T, Cherny D, Heim G, Jovin T M, Subramaniam V. Dependence of AS aggregate morphology on solution conditions. J Mol Biol 2002; 322(2): 383-93), and purity was assessed by SDS-PAGE. […] The protein concentration was determined by absorbance at 275 nm using the extinction coefficient ε275=5600 cm^−1 M^−1. […]
For aggregation reactions, aliquots of monomeric AS (70 μM) in 20 mM HEPES, pH 7.4 were incubated in a Thermomixer comfort (Eppendorf) at 37° C. and 600 rpm in the absence or presence of 10 or 50 μM D9. Aggregation was monitored with a Horiba FluoroMax-4 spectrofluorometer using the ThT fluorescence assay.

Inhibition of AS aggregation (ThT fluorescence) [2]: able to inhibit AS aggregation
SMILES: C[C@H]1c2ccc(NC(=O)CCC(=O)NCCc3ccc(O)c(O)c3)c(O)c2C(=O)C2=C(O)[C@]3(O)C(=O)C(C(N)=O)=C(O)CC3[C@@H](O)C21 (stereo partly shown) [Pegasus]
Localization and number of lysosomes (lysosome biogenesis) (SH-SY5Y cells): does not interfere with the biogenesis of lysosomes
Localization and distribution of Cytochrome C-tGFP (marker of apoptosis) [1]: no differences in localization and distribution of Cytochrome C-tGFP
Cytotoxicity (relative cell viability, MTT) (Bv2 cells): did not induce cell toxicity
